Experimental data taken from PMC10287566, “Signaling-specific inhibition of the CB1 receptor for cannabis use disorder: phase 1 and phase 2a randomized trials” (Nature Medicine, 2023).

Key:
[1] = Phase 2a study, plasma pharmacokinetics; format: in vivo, human; conditions: for Cmax: human, plasma, in the range predicted from animal data
Description: THC and its metabolites (11-OH-THC and 11-COOH-THC) were assessed at the same timepoints. […] THC and its metabolites analyses were performed using PD dataset (n = 13 for both doses).
PK parameters for AEF0117 were subject to descriptive statistics separately for each treatment group.

healthy volunteers = test: Phase 1 single-ascending-dose (SAD) study, safety
Description: Four single oral dose levels (0.2, 0.6, 2 and 6 mg) were given in the morning on day 1 in the SAD study, and three oral doses (0.6, 2 and 6 mg) were given in the morning of day 1 to day 7 in the MAD study, to independent dose cohorts. […] Each dose cohort comprised eight volunteers (six (5/1) active and two (1/1) placebo per dose level).
During the rest of the study, only volunteers with pathological values were excluded.
Participants were admitted to the research clinic at midday before dosing (day −1). In the SAD study, they remained in-house until day 8 for PK and PD samples and safety assessments. In the MAD study, participants remained in-house until day 14 and returned to the research facility on an outpatient basis to have PK and safety assessments at 216 h and 264 h (day 16 and day 18) after their last dose (day 7). Safety monitoring (physical examinations, vital sign measurements, 12-lead ECGs, clinical safety laboratory tests and AE monitoring) were performed throughout the studies. Psychometrics tests (Bond & Lader VAS, Addiction Research Center Inventory (49-item short form) (ARCI-49) and Profile of Mood States 65 self-report items (POMS-65)) and the Columbia-Suicide Severity Rating Scale (C-SSRS) test were performed at baseline, before dose and at 4 h and 24 h after dose on day 1 and day 7 (MAD study, only) and C-SSRS only at 24 h.
All participants who had AEs, whether considered associated with the use of the investigational product or not, were monitored for as long as needed to determine resolution.

In the case of COc1ccc(CO[C@H]2CC[C@@]3(C)C(=CC[C@H]4[C@@H]5CC[C@H](C(C)=O)[C@@]5(C)CC[C@@H]43)C2)cc1 [AEF0117, 3β-(4-methoxybenzyloxy)pregn-5-en-20-one], the “plasma concentration below LLOQ after washout” value ([1]; 0.06 mg first, >=14 d later, 3 participants) is reported as 0.0002 to 0.0093 ng/mL, the “mean concentration 24 h after 5th dose higher than 24 h after 1st dose” value ([1]; Phase 2a, 0.06 and 1 mg) is reported as 30-50% and the Cmax ([1]; 0.06 mg) is reported as ≥ 0.15 ng/mL. For the same compound, the Cmax ([1]; 1 mg) was ≥ 1.5 ng/mL, the “Number of TEAEs” value (healthy volunteers; single 0.2 mg) was 4 E and the “Number of participants with a TEAE leading to discontinuation” value (shortened to “Number … to discontinuation”) (healthy volunteers; single 0.2 mg) was 0 n (%). The “Number of participants with an SAE” value (healthy volunteers; single 0.2 mg) was 0 n (%), the “Number of participants with at least one TEAE” value (from here on “Number … at least one TEAE”) (healthy volunteers; single 0.2 mg) was 2 (33.3) n (%) and the “Participants with TEAE: Mild” value (healthy volunteers; single 0.2 mg) was 2 (33.3) n (%). For the same compound, the “Participants with TEAE: Moderate” value (healthy volunteers; single 0.2 mg) was 1 (16.7) n (%), the “Participants with TEAE: Not related” value (healthy volunteers; single 0.2 mg) was 1 (16.7) n (%) and the “Participants with TEAE: Severe” value (healthy volunteers; single 0.2 mg) was 0 n (%). The “TEAEs by SOC: Gastrointestinal disorders” value (healthy volunteers; single 0.2 mg) was 2 (33.3) n (%), the “TEAEs by SOC: Investigations” value (healthy volunteers; single 0.2 mg) was 0 n (%) and the “TEAEs by SOC: Nervous system disorders” value (healthy volunteers; single 0.2 mg) was 1 (16.7) n (%). The “Number of TEAEs” value (healthy volunteers; single 0.6 mg) was 0 E, the “Number … to discontinuation” value (healthy volunteers; single 0.6 mg) was 0 n (%) and the “Number of participants with an SAE” value (healthy volunteers; single 0.6 mg) was 0 n (%). The “Number … at least one TEAE” value (healthy volunteers; single 0.6 mg) was 0 n (%), the “Participants with TEAE: Mild” value (healthy volunteers; single 0.6 mg) was 0 n (%) and the “Participants with TEAE: Moderate” value (healthy volunteers; single 0.6 mg) was 0 n (%). For the same compound, the “Participants with TEAE: Not related” value (healthy volunteers; single 0.6 mg) was 0 n (%), the “Participants with TEAE: Related” value (healthy volunteers; single 0.6 mg) was 0 n (%) and the “Participants with TEAE: Severe” value (healthy volunteers; single 0.6 mg) was 0 n (%). For the same compound, the “TEAEs by SOC: Gastrointestinal disorders” value (healthy volunteers; single 0.6 mg) was 0 n (%), the “TEAEs by SOC: Investigations” value (healthy volunteers; single 0.6 mg) was 0 n (%) and the “TEAEs by SOC: Nervous system disorders” value (healthy volunteers; single 0.6 mg) was 0 n (%). The “Number of TEAEs” value (healthy volunteers; single 2 mg) was 2 E, the “Number … to discontinuation” value (healthy volunteers; single 2 mg) was 0 n (%) and the “Number of participants with an SAE” value (healthy volunteers; single 2 mg) was 0 n (%). The “Number … at least one TEAE” value (healthy volunteers; single 2 mg) was 1 (8.3) n (%), the “Participants with TEAE: Mild” value (healthy volunteers; single 2 mg) was 1 (8.3) n (%) and the “Participants with TEAE: Moderate” value (healthy volunteers; single 2 mg) was 0 n (%). For the same compound, the “Participants with TEAE: Not related” value (healthy volunteers; single 2 mg) was 0 n (%), the “Participants with TEAE: Severe” value (healthy volunteers; single 2 mg) was 0 n (%) and the “TEAEs by SOC: Gastrointestinal disorders” value (healthy volunteers; single 2 mg) was 0 n (%). For the same compound, the “TEAEs by SOC: Investigations” value (healthy volunteers; single 2 mg) was 1 (8.3) n (%), the “TEAEs by SOC: Nervous system disorders” value (healthy volunteers; single 2 mg) was 0 n (%) and the “Number of TEAEs” value (healthy volunteers; single 6 mg) was 0 E. For the same compound, the “Number … to discontinuation” value (healthy volunteers; single 6 mg) was 0 n (%), the “Number of participants with an SAE” value (healthy volunteers; single 6 mg) was 0 n (%) and the “Number … at least one TEAE” value (healthy volunteers; single 6 mg) was 0 n (%). For the same compound, the “Participants with TEAE: Mild” value (healthy volunteers; single 6 mg) was 0 n (%), the “Participants with TEAE: Moderate” value (healthy volunteers; single 6 mg) was 0 n (%) and the “Participants with TEAE: Not related” value (healthy volunteers; single 6 mg) was 0 n (%). For the same compound, the “Participants with TEAE: Related” value (healthy volunteers; single 6 mg) was 0 n (%), the “Participants with TEAE: Severe” value (healthy volunteers; single 6 mg) was 0 n (%) and the “TEAEs by SOC: Gastrointestinal disorders” value (healthy volunteers; single 6 mg) was 0 n (%). For the same compound, the “TEAEs by SOC: Investigations” value (healthy volunteers; single 6 mg) was 0 n (%) and the “TEAEs by SOC: Nervous system disorders” value (healthy volunteers; single 6 mg) was 0 n (%).
